Laboratory results as given in paper PMC5487684, “Safety, Pharmacokinetics, and Antiviral Activity of a Novel HIV Antiviral, ABX464, in Treatment-Naive HIV-Infected Subjects in a Phase 2 Randomized, Controlled Study” (Antimicrobial Agents and Chemotherapy, 2017).

System: HIV-infected subjects
Test: Safety and tolerability (TEAEs, ECG, laboratory) after repeated oral administration, phase 2a study
Type: in vivo, human
Method: Participants were assigned to one of eight groups; each group (with one exception) included eight subjects receiving either ABX464 (n = 6) or the corresponding placebo (n = 2) according to a randomization code. […] In the present study with HIV-infected subjects, the first dose administered was 25 mg, given once or 3 times a day over a 2- to 3-week period. This initial dose was therefore considered safe for assessment of the safety and tolerability of ABX464 after repeated oral administrations in subjects infected by HIV and determination of the potential effect on the HIV viral load.
The final dosing protocol for each of the eight groups was as follows: group 1, 25 mg every 3 days for 2 to 3 weeks under fasted conditions; group 2, 25 mg once a day (q.d.) for 2 to 3 weeks under fasted conditions; group 3, 50 mg once a day for 2 to 3 weeks under fasted conditions; group 4, 50 mg 3 times a day (t.i.d.) for 4 weeks under fed conditions; group 5, 75 mg once a day for 2 weeks under fed conditions; group 6, 100 mg once a day for 2 to 3 weeks under fasted conditions; group 7, 150 mg every 3 days for 2 to 3 weeks under fed conditions; and group 8, 150 mg once a day for 2 weeks under fed conditions. Per the study protocol, the treatment period was defined as 2 weeks. […] The decision to proceed to the next highest dose was determined by the data and safety monitoring board after review of the laboratory safety data, vital signs, ECGs, and adverse event reports from the group receiving the current dose after 2 weeks of treatment.
Subjects were hospitalized from the day prior to the first dose to at least the morning of day 2. They were orally dosed with 25-mg capsules of ABX464 with 240 ml water under fed or fasted conditions. According to the group, subjects were dosed with 1, 2, 3, 4, or 6 capsules to deliver 25 mg, 50 mg, 75 mg, 100 mg, or 150 mg product, respectively, or the same number of placebo capsules.
Safety assessments and laboratory tests were carried out according to the schedules described in Table S4 for groups dosed every day, every 3 days, and 3 times a day. Follow-up visits were scheduled for 7 days after the last dose and subsequently once every week in order to assess the elimination of the main ABX464 metabolite and to assess the viral load. Follow-up visits were terminated when the virus load was within 0.5 log of the baseline value or after 3 follow-up visits, whichever came first. Prior to the statistical analyses, AEs were coded using the Medical Dictionary for Regulatory Activities (MedDRA dictionary; last available version) in order to be tabulated by system organ class (SOC) and preferred term (PT). The AEs were analyzed according to the treatment emergence phase from the first study drug administration on day 1 up to 48 h after the last study drug administration. The number and percentage of subjects with at least one TEAE were tabulated by SOC and PT for each group and dose. The number of occurrences of TEAEs was also analyzed in the same way by SOC and PT for each group and dose, by grade of severity for each group and dose, and by level of causality to the study drug for each group and dose.

[1] = Group 2 (n = 6), 25 mg q.d., fasted, Moderate
[2] = Group 3 (n = 7), 50 mg q.d., fasted, Mild
[3] = Group 3 (n = 7), 50 mg q.d., fasted, Moderate
[4] = Group 4 (n = 7), 50 mg t.i.d., fed, Mild
[5] = Group 4 (n = 7), 50 mg t.i.d., fed, Moderate

SMILES: FC(F)(F)Oc1ccc(Nc2ccc3cccc(Cl)c3n2)cc1 [ABX464]
- Subjects experiencing at least one TEAE: Total [1]: 0 (0.0) No. (%)
- Subjects experiencing at least one TEAE: Upper abdominal pain [1]: 0 (0.0) No. (%)
- Subjects experiencing at least one TEAE: Vomiting [1]: 0 (0.0) No. (%)
- Subjects experiencing at least one TEAE: Abdominal pain [2]: 0 (0.0) No. (%)
- Subjects experiencing at least one TEAE: Arthralgia [2]: 1 (14.3) No. (%)
- Subjects experiencing at least one TEAE: Back pain [2]: 0 (0.0) No. (%)
- Subjects experiencing at least one TEAE: Diarrhea [2]: 0 (0.0) No. (%)
- Subjects experiencing at least one TEAE: Flank pain [2]: 0 (0.0) No. (%)
- Subjects experiencing at least one TEAE: Gastrointestinal disorders [2]: 1 (14.3) No. (%)
- Subjects experiencing at least one TEAE: Headache [2]: 1 (14.3) No. (%)
- Subjects experiencing at least one TEAE: Injury, poisoning, and procedural complications [2]: 0 (0.0) No. (%)
- Subjects experiencing at least one TEAE: Musculoskeletal and connective tissue disorders [2]: 1 (14.3) No. (%)
- Subjects experiencing at least one TEAE: Nausea [2]: 1 (14.3) No. (%)
- Subjects experiencing at least one TEAE: Neck pain [2]: 0 (0.0) No. (%)
- Subjects experiencing at least one TEAE: Nervous system disorders [2]: 1 (14.3) No. (%)
- Subjects experiencing at least one TEAE: Pain in extremity [2]: 0 (0.0) No. (%)
- Subjects experiencing at least one TEAE: Sciatica, back pain [2]: 0 (0.0) No. (%)
- Subjects experiencing at least one TEAE: Skin abrasion [2]: 0 (0.0) No. (%)
- Subjects experiencing at least one TEAE: Total [2]: 2 (28.6) No. (%)
- Subjects experiencing at least one TEAE: Upper abdominal pain [2]: 0 (0.0) No. (%)
- Subjects experiencing at least one TEAE: Vomiting [2]: 1 (14.3) No. (%)
- Subjects experiencing at least one TEAE: Abdominal pain [3]: 0 (0.0) No. (%)
- Subjects experiencing at least one TEAE: Arthralgia [3]: 0 (0.0) No. (%)
- Subjects experiencing at least one TEAE: Back pain [3]: 0 (0.0) No. (%)
- Subjects experiencing at least one TEAE: Diarrhea [3]: 0 (0.0) No. (%)
- Subjects experiencing at least one TEAE: Flank pain [3]: 0 (0.0) No. (%)
- Subjects experiencing at least one TEAE: Headache [3]: 1 (14.3) No. (%)
- Subjects experiencing at least one TEAE: Injury, poisoning, and procedural complications [3]: 0 (0.0) No. (%)
- Subjects experiencing at least one TEAE: Musculoskeletal and connective tissue disorders [3]: 0 (0.0) No. (%)
- Subjects experiencing at least one TEAE: Nausea [3]: 0 (0.0) No. (%)
- Subjects experiencing at least one TEAE: Neck pain [3]: 0 (0.0) No. (%)
- Subjects experiencing at least one TEAE: Nervous system disorders [3]: 1 (14.3) No. (%)
- Subjects experiencing at least one TEAE: Pain in extremity [3]: 0 (0.0) No. (%)
- Subjects experiencing at least one TEAE: Sciatica, back pain [3]: 0 (0.0) No. (%)
- Subjects experiencing at least one TEAE: Skin abrasion [3]: 0 (0.0) No. (%)
- Subjects experiencing at least one TEAE: Total [3]: 1 (14.3) No. (%)
- Subjects experiencing at least one TEAE: Upper abdominal pain [3]: 0 (0.0) No. (%)
- Subjects experiencing at least one TEAE: Vomiting [3]: 0 (0.0) No. (%)
- Subjects experiencing at least one TEAE: Abdominal pain [4]: 0 (0.0) No. (%)
- Subjects experiencing at least one TEAE: Arthralgia [4]: 1 (14.3) No. (%)
- Subjects experiencing at least one TEAE: Back pain [4]: 2 (28.6) No. (%)
- Subjects experiencing at least one TEAE: Diarrhea [4]: 0 (0.0) No. (%)
- Subjects experiencing at least one TEAE: Flank pain [4]: 0 (0.0) No. (%)
- Subjects experiencing at least one TEAE: Gastrointestinal disorders [4]: 3 (42.9) No. (%)
- Subjects experiencing at least one TEAE: Headache [4]: 2 (28.6) No. (%)
- Subjects experiencing at least one TEAE: Injury, poisoning, and procedural complications [4]: 0 (0.0) No. (%)
- Subjects experiencing at least one TEAE: Musculoskeletal and connective tissue disorders [4]: 3 (42.9) No. (%)
- Subjects experiencing at least one TEAE: Nausea [4]: 0 (0.0) No. (%)
- Subjects experiencing at least one TEAE: Neck pain [4]: 1 (14.3) No. (%)
- Subjects experiencing at least one TEAE: Nervous system disorders [4]: 2 (28.6) No. (%)
- Subjects experiencing at least one TEAE: Pain in extremity [4]: 1 (14.3) No. (%)
- Subjects experiencing at least one TEAE: Sciatica, back pain [4]: 0 (0.0) No. (%)
- Subjects experiencing at least one TEAE: Skin abrasion [4]: 0 (0.0) No. (%)
- Subjects experiencing at least one TEAE: Total [4]: 7 (100.0) No. (%)
- Subjects experiencing at least one TEAE: Upper abdominal pain [4]: 2 (28.6) No. (%)
- Subjects experiencing at least one TEAE: Vomiting [4]: 1 (14.3) No. (%)
- Subjects experiencing at least one TEAE: Abdominal pain [5]: 0 (0.0) No. (%)
- Subjects experiencing at least one TEAE: Arthralgia [5]: 0 (0.0) No. (%)
- Subjects experiencing at least one TEAE: Back pain [5]: 0 (0.0) No. (%)
- Subjects experiencing at least one TEAE: Diarrhea [5]: 0 (0.0) No. (%)
- Subjects experiencing at least one TEAE: Flank pain [5]: 0 (0.0) No. (%)
- Subjects experiencing at least one TEAE: Gastrointestinal disorders [5]: 1 (14.3) No. (%)
- Subjects experiencing at least one TEAE: Headache [5]: 0 (0.0) No. (%)
- Subjects experiencing at least one TEAE: Injury, poisoning, and procedural complications [5]: 0 (0.0) No. (%)
- Subjects experiencing at least one TEAE: Musculoskeletal and connective tissue disorders [5]: 0 (0.0) No. (%)
- Subjects experiencing at least one TEAE: Nausea [5]: 0 (0.0) No. (%)
- Subjects experiencing at least one TEAE: Neck pain [5]: 0 (0.0) No. (%)
- Subjects experiencing at least one TEAE: Nervous system disorders [5]: 0 (0.0) No. (%)
- Subjects experiencing at least one TEAE: Pain in extremity [5]: 0 (0.0) No. (%)
- Subjects experiencing at least one TEAE: Sciatica, back pain [5]: 0 (0.0) No. (%)
- Subjects experiencing at least one TEAE: Skin abrasion [5]: 0 (0.0) No. (%)
- Subjects experiencing at least one TEAE: Total [5]: 1 (14.3) No. (%)
- Subjects experiencing at least one TEAE: Upper abdominal pain [5]: 1 (14.3) No. (%)
- Subjects experiencing at least one TEAE: Vomiting [5]: 0 (0.0) No. (%)
- Subjects experiencing at least one TEAE: Abdominal pain (Group 5 (n = 6), 75 mg q.d., fed, Mild): 0 (0.0) No. (%)
